One data set concerns NanoBiT. Nature of the data set: Negative screening HiBiT assay (NanoBiT activity). It is filed as cell-based. The note with it: for Negative Screening HiBiT Assay % Inhibition (20 μM): 20 μM drug; for Negative Screening HiBiT Assay % Inhibition (100 μM): 100 μM drug; for Negative Screening HiBiT Assay INHIBIT NanoBiT: >70% inhibition in 100 μM, then including >35% inhibition at 20 μM. For orientation: With HiBiT, luminescence reflects the tagged protein that the partner subunit can reach.

Another data set deals with VERO E6 cells. The note with it: for CC50: read-out: VeroE6 CC50, VERO E6 cells, CellTiter-Glo.
A short description of the next data set: in vitro. The note with it: African green monkey.
Data set [1] concerns the target RBD-ACE2 attachment (RBD of viral spike protein and ACE2 receptor) (Severe acute respiratory syndrome coronavirus 2, UniProt P0DTC2). Nature of the data set: cell-based. Also noted: species or system SARS-CoV-2; human. The note with it: for inhibition at 20 µM / inhibition at 100 µM: HeLa; for inhibition at 20 µM: read-out: Positive Screening RBD Attachment Assay % Inhibition (20 μM); for inhibition at 100 µM: read-out: Positive Screening RBD Attachment Assay % Inhibition (100 μM).

For data set [2], the system named is spike-based pseudovirus (wild type) on SmBiT-ACE2 HeLa cells. Kind of data set: microbe, parasite or virus in culture. It is filed as cell-based, SARS-CoV-2. The note with it: read-out: EC50 Pseudovirus Wild Type.
Where [3] appears, read: VeroE6 CC50, VERO E6 cells, CellTiter-Glo.

Several values for one entry are separate records, joined by “and”; a condition that tells them apart may be missing. Identical values can stand only once. Counter-ions that a name gives are not always drawn. Like-named read-outs stand apart in the source and are kept apart here.

The values below come from publication PMC8999638, “Identification of Entry Inhibitors against Delta and Omicron Variants of SARS-CoV-2” (International Journal of Molecular Sciences, 2022).

Consider `Clc1ccc(COC(Cn2ccnc2)c2ccc(Cl)cc2Cl)c(Cl)c1` (stereo not shown) [Miconazole nitrate], for which, in the data set on NanoBiT, the “Negative Screening HiBiT Assay % Inhibition (20 μM)” value amounted to 3%, the “Negative Screening HiBiT Assay % Inhibition (100 μM)” value is listed as 12% and the “Negative Screening HiBiT Assay INHIBIT NanoBiT” value is given as “No”. Moreover, the CC50 with VERO E6 cells is 16.9 µM.

Regarding `O=C1CCc2ccc(OCCCCN3CCN(c4cccc(Cl)c4Cl)CC3)cc2N1` [Aripiprazole], in the data set on NanoBiT, the “Negative Screening HiBiT Assay % Inhibition (20 μM)” value came to 13%, the “Negative Screening HiBiT Assay % Inhibition (100 μM)” value came to 21% and the “Negative Screening HiBiT Assay INHIBIT NanoBiT” value is listed as “No”. The CC50 in the data set “in vitro” (setting [3]) was 14 µM.

Consider `Clc1ccc(COC(Cn2ccnc2)c2ccc(Cl)cc2Cl)c(Cl)c1` (stereo not shown) [Miconazole], for which, in the data set on NanoBiT, the “Negative Screening HiBiT Assay % Inhibition (20 μM)” value came to 6%, the “Negative Screening HiBiT Assay % Inhibition (100 μM)” value was found to be 15% and the “Negative Screening HiBiT Assay INHIBIT NanoBiT” value was “No”. Also, the CC50 in “in vitro” (setting [3]) was 14 µM.

One may read the EC50 as the concentration that produces a half-maximal response. A word on the inhibition: it is the change of the read-out against control, counted positive when it falls. As for `CC1(C)CCC(CN2CCN(c3ccc(C(=O)NS(=O)(=O)c4ccc(NCC5CCOCC5)c([N+](=O)[O-])c4)c(Oc4cnc5[nH]ccc5c4)c3)CC2)=C(c2ccc(Cl)cc2)C1` [ABT-199], in the data set with NanoBiT, the “Negative Screening HiBiT Assay % Inhibition (20 μM)” value is 0%, the “Negative Screening HiBiT Assay % Inhibition (100 μM)” value was determined as 43% and the “Negative Screening HiBiT Assay INHIBIT NanoBiT” value is reported as “No”. Moreover, in data set [1], it took 39.1 µM to reach a half-maximal effect (EC50), the “Positive Screening RBD Attachment Assay Dose Response” value is “Yes”, the inhibition at 20 µM turned out to be 51% and the inhibition at 100 µM stood at 96%. For the same molecule, the CC50 in “in vitro” (setting [3]) is 17.3 µM.

As for `OCCOc1ccc(/C(=C(/CCCl)c2ccccc2)c2ccccc2)cc1` [Ospemifene], in the data set on NanoBiT, the “Negative Screening HiBiT Assay % Inhibition (20 μM)” value is recorded as 3%, the “Negative Screening HiBiT Assay % Inhibition (100 μM)” value was found to be 8% and the “Negative Screening HiBiT Assay INHIBIT NanoBiT” value is on record as “No”. Also, the “Cytotoxicity to VeroE6 cells” value in the data set with VERO E6 cells is recorded as “not toxic”. Further, in data set [1], the “Positive Screening RBD Attachment Assay Dose Response” value was “Yes”, the inhibition at 20 µM worked out at 39% and the inhibition at 100 µM came out at 68%. The EC50 in data set [1] (EC50 RBD Attachment) worked out at 56.2 µM. This molecule had a CC50 in the data set “in vitro” (VeroE6 CC50) of more than 100 µM.

Take Gramicidin: in the data set on NanoBiT, the “Negative Screening HiBiT Assay % Inhibition (20 μM)” value was 0%, the “Negative Screening HiBiT Assay % Inhibition (100 μM)” value was determined as 35% and the “Negative Screening HiBiT Assay INHIBIT NanoBiT” value was “No”. The CC50 with VERO E6 cells came out at 3.9 µM. Further, in data set [1], the “Positive Screening RBD Attachment Assay % Inhibition (100 μM)” value came out at 95% and the “Positive Screening RBD Attachment Assay Dose Response” value is on record as “Yes”. The EC50 in data set [1] (read-out: EC50 RBD Attachment) was 5.3 µM. For the same molecule, the EC50 in data set [2] was ~1200 nM and 1200 nM.

For the molecule `Nc1ccc(/N=N/c2ccccc2)c(N)n1` [Phenazopyridine hydrochloride], in the data set on NanoBiT, the “Negative Screening HiBiT Assay % Inhibition (20 μM)” value was 48%, the “Negative Screening HiBiT Assay % Inhibition (100 μM)” value stood at 83% and the “Negative Screening HiBiT Assay INHIBIT NanoBiT” value is “Yes”. Besides, in data set [1], the “Positive Screening RBD Attachment Assay Dose Response” value is “Yes”, the inhibition at 20 µM turned out to be 52% and the inhibition at 100 µM amounted to 91%.

Take `COC(=O)C1=C(C)NC(C)=C(C(=O)OCCN(C)Cc2ccccc2)C1c1cccc([N+](=O)[O-])c1` (stereo not shown) [Nicardipine hydrochloride]: in the data set with NanoBiT, the “Negative Screening HiBiT Assay % Inhibition (20 μM)” value was determined as 64%, the “Negative Screening HiBiT Assay % Inhibition (100 μM)” value is recorded as 88% and the “Negative Screening HiBiT Assay INHIBIT NanoBiT” value is listed as “Yes”. For the same molecule, in data set [1], the “Positive Screening RBD Attachment Assay Dose Response” value was “Yes”, the inhibition at 20 µM was 58% and the inhibition at 100 µM stood at 86%.
